{"source": "patent US6635622B2", "about": "“Glycolipid derivative” (Kotobuki Pharmaceutical Co., Ltd., priority 2000, dated 2003)", "key": {"[1]": {"system": "pancreatic lymphocyte of mouse", "assay": "Lymphocyte mixed culture reaction (3H-thymidine uptake, DNA synthesis)", "type": "cell-based, BALB/C mouse", "conditions": "concentration 1 ng/mL; cultured 3 days, 3H-TdR uptake 6 hours", "description": "Experiment 1: Lymphocyte mixed culture reaction.\nThe pancreatic cells of BALB/C mouse were regulated to a concentration of 2×10^6 cells/ml with a culture medium of 10% FCS RPMI 1640, respectively. These cells (100 ul/well) and a sample (10 ul/well) were plated in a 96 well round-bottomed plate and cultured for 3 days under the condition of 37° C. and 5% CO2. Then, 3H-thymidine (3H-TdR) was added in a dose of 0.5 uCi/well. After 6 hours, the cells were harvested and subjected to the measurement of the uptake of 3H-TdR by a liquid scintillation counter. Thus, the DNA synthesis of pancreatic lymphocyte of mouse […]."}, "[2]": {"system": "B16 mouse melanoma cells", "assay": "Tumor metastasis inhibitory activity against B16 mouse melanoma (lung nodules)", "type": "in vivo, C57BL/6 mouse", "conditions": "p.o., lung surface nodules 14 days after B16 injection, vs control"}}}
{"compound": "CCCCCCCCCCCCCCCCCCCCCCCCCC(=O)NC(CS[C@H]1OC(CO)[C@H](O)C(O)C1O)C(O)C(O)CCCCCCCCCCCCCC", "note": "(stereo partly drawn) [Compound 8, (2′S,3′S,4′R)-3′,4′-Dihydroxy-2′-N-hexacosanoylamino-octadecane-1′-thio-yl-α-C-D-galactopyranoside]", "values": [{"measurement": "Increase of DNA synthesis (%)", "setting": "[1]", "result": 35.4, "unit": "%"}, {"measurement": "Inhibition of metastasis (%)", "setting": "[2]; dose 1 mg/kg", "result": 80.8, "unit": "%"}]}
{"compound": "CCCCCCCCCCCCCCCCCCCCCCCCCC(=O)NC(CC[C@H]1OC(CO)[C@H](O)C(O)C1O)C(O)C(O)CCCCCCCCCCCCCC", "note": "(stereo partly drawn) [Compound 1, (3′S,4′S,5′R)-3′-N-Hexacosanoylamino-4′,5′-dihydroxy-nonadecane-α-C-D-galactopyranoside]", "values": [{"measurement": "Increase of DNA synthesis (%)", "setting": "[1]", "result": 54.6, "unit": "%"}, {"measurement": "Inhibition of metastasis (%)", "setting": "[2]; dose 0.001 mg/kg", "result": 65.3, "unit": "%"}]}
